The numbers were not newly measured in patent US8735422B2, “Cationic pharmaceutically active ingredient containing composition, and methods for manufacturing and using” (Skinvisible Pharmaceuticals, Inc., priority 2009, dated 2014), which cites them from elsewhere.

The conditions of series [1]: in vivo.
The mark [2] stands for this setting: Table 4, value used for the calculation.

Like-named read-outs stand apart in the source and are kept apart here.

For “Poly(vinylpyrrolidone/1-eicosene) [PVPE]”, in series [1], the dermal toxicity entry was “no demonstrable dermal toxicity”.

For the molecule `O=C(O)CCCCCCCCCCC(=O)O` [Dodecandioic], for the setting “Table 1”, the pK1 was 4.5 and the pK2 is reported as 4.5.

Turning to `O=C(O)[C@H](O)[C@@H](O)[C@H](O)[C@H](O)CO` [Gluconic Acid], the pK1 (Table 1) is 3.86.

On to `O=C(O)c1ccccc1` [Benzoic Acid], for which, under “Table 1”, the pK1 is recorded as 4.21. On to `CC(C)Cn1cnc2c(N)nc3ccccc3c21` [Imiquimod, reference compound], for which, under setting [2], the pK is 4.49. With `CCCCCCCCCCCCCCCCCC(=O)O` [Stearic Acid], the pK1 (Table 1) is listed as 7.0. On to `CC(=O)O` [Acetic Acid], for which the pK1 (Table 1) was 4.76. Consider `CCCCCCCCCCCC(=O)O` [Lauric Acid], for which the pK is reported as 5.3. Under “Table 1”, the pK1 is reported as 5.3. In addition, the pK under setting [2] is 5.30. With “Poly(vinylpyrrolidone/1-hexadecene) [PVPH]”, in series [1], the dermal toxicity result is “no demonstrable dermal toxicity”.
